Data as given in US20100120618A1, “HERBICIDAL COMPOSITION” (SYNGENTA CROP PROTECTION, INC., priority 2007, published 2010).

Legend:
Avena = test: Post-emergence test, herbicidal activity on Avena; type: in vivo; settings: 21 days after application, average of 3 tests
Description: (§1) The test plants (Avena and winter wheat) are raised under greenhouse conditions in seed trays to a post-application stage (1.5- to 2-leaf stage). Pinoxaden is then applied to the test plants either alone or in admixture with component b) and optionally c). For both applications an additive is used which contains per litre 45% by weight Agnique ME 18 RD-F and 25% by weight Emulsogen M in Solvesso 200 ND. Application of pinoxaden is effected in the form of an emulsifiable concentrate (EC 100), and component b) and optionally c) is used in the form of WP 25. Those formulations are used to prepare spray mixtures, each of 200 litres, which contain 50 g or 100 g of pinoxaden and component b) and optionally c) and in each case 0.5% of additive (based on the volume of the spray mixtures). The tests are evaluated 21 days after application (herbicidal activity 100%=plant completely dead; herbicidal activity 0%=no phytotoxic action on the plant). The results, which are values averaged from 3 tests, are compiled in the following Table.

winter wheat = test: Post-emergence test, herbicidal activity on winter wheat; type: in vivo; settings: 21 days after application, average of 3 tests
Description: as §1

[1] = 100 g/ha pinoxaden + 0.5% additive

`CCc1cc(C)cc(CC)c1-c1c(OC(=O)C(C)(C)C)n2n(c1=O)CCOCC2` [pinoxaden] was tested, and the “Herbicidal activity on Avena” value (Avena; 50 g/ha pinoxaden + 0.5% additive, 100%=plant completely dead) was 82%, the “Herbicidal activity on Avena” value (Avena; [1]) was 87% and the “Herbicidal activity on Winter wheat” value (winter wheat; 50 g/ha pinoxaden + 0.5% additive, 0%=no phytotoxic action) was 8%. For the same compound, the “Herbicidal activity on Winter wheat” value (winter wheat; [1]) was 8%.
